BindingDB's records for doi:10.1016/s0028-3908(96)00054-8 (National Institute of Diabetes, Digestive and Kidney …, 1996)

What was measured:
[1] = target: Gamma-aminobutyric acid receptor subunit alpha-4 (Rattus norvegicus, UniProt P28471)
[2] = target: Gamma-aminobutyric acid receptor subunit alpha-6 (Rattus norvegicus, UniProt P30191)
Sequence of Gamma-aminobutyric acid receptor subunit alpha-6 (P30191 whole entry): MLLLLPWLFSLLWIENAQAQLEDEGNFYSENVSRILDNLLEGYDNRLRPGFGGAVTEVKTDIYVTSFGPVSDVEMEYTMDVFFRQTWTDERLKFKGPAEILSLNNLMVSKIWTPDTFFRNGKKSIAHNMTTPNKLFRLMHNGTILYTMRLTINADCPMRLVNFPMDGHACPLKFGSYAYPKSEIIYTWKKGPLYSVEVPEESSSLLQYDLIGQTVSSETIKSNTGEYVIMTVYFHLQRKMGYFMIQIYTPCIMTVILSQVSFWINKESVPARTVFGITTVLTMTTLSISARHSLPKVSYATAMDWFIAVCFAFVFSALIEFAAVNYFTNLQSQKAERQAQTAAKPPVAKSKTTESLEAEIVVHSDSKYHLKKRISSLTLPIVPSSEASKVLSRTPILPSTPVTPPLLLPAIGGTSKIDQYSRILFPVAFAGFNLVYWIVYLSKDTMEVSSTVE

Sequence of Gamma-aminobutyric acid receptor subunit alpha-4 (P28471 whole entry): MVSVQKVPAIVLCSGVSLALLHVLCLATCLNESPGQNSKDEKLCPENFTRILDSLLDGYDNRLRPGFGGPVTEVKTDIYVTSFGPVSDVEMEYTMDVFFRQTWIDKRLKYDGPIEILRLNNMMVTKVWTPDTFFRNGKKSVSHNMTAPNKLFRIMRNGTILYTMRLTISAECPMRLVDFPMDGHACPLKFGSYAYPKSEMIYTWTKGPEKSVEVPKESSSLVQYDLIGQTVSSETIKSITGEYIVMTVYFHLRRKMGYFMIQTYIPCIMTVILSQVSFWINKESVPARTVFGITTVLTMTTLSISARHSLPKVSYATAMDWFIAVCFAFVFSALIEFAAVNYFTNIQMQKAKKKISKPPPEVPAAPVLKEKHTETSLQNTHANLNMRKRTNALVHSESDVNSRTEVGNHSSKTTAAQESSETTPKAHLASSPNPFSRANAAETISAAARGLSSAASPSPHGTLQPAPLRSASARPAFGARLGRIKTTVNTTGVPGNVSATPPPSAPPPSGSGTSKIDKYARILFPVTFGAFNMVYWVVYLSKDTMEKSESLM

| SMILES | Ki [1] | Ki [2] |
| --- | --- | --- |
| CN1Cc2c(C(=O)OC(C)(C)C)ncn2-c2ccc(OCc3ccccc3)cc2C1=O [DM-236] | 188 nM | 1590 nM |
| COc1ccc(-n2[nH]c3c(cnc4cc(OC)ccc43)c2=O)cc1 | 11.6 nM | 23 nM |
| CC(C)(C)OC(=O)c1cc2c(cn1)[nH]c1ccccc12 | 897 nM | 4750 nM |
| CN1Cc2c(C(=O)OC(C)(C)C)ncn2-c2ccsc2C1=O [Ro-19-4603] | 6 nM | 3.6 nM |
| COc1ccc2ncc3c(=O)n(-c4ccccc4)[nH]c3c2c1 | 22.5 nM | 74.5 nM |
| O=c1c2cnc3ccccc3c2[nH]n1-c1ccccc1 | 8 nM | 34.3 nM |
| CCOC(=O)c1ncc2[nH]c3cccc(OCc4ccccc4)c3c2c1COC [NSC_123700] | 573 nM | 1200 nM |
| O=c1c2cnc3ccccc3c2[nH]n1-c1ccc(Cl)cc1 | 214 nM | 500 nM |
| CCc1c(C(=O)OC)ncc2[nH]c3cc(OC)c(OC)cc3c12 [NSC_104999] | 38.5 nM | 121 nM |
| CCOC(=O)c1cc2c(cn1)[nH]c1ccccc12 |  | 2620 nM |
| CCOC(=O)c1ncc2[nH]c3ccc(OCc4ccccc4)cc3c2c1COC [NSC_121926] | > 10000 nM | > 10000 nM |
| CCOC(=O)c1ncn2c1CN(C)C(=O)c1cc(N=[N+]=[N-])ccc1-2 [RO-154513] |  | 5.3 nM |
| CCOC(=O)c1ncn2c1CN(C)C(=O)c1cc(F)ccc1-2 [ethyl 12-fluoro-8-methyl-9-oxo-2,4,8-triazatricyclo[8.4.0.0^{2,6}]tetradeca-1(14),3,5,10,12-pentaene-5-carboxylate] | 118 nM |  |
| CN1Cc2c(C(=O)OC(C)(C)C)ncn2-c2ccc(Cl)cc2C1=O | 9.5 nM | 8.2 nM |
| CCc1ccc2c(c1)C(=O)N(C)Cc1c(C(=O)OC(C)(C)C)ncn1-2 [DM 286] | 10 nM | 13.5 nM |
| COC(=O)c1cc2c(cn1)[nH]c1ccccc12 | 436 nM | 2020 nM |
| CN1Cc2c(C(=O)OC(C)(C)C)ncn2-c2ccc(N=[N+]=[N-])cc2C1=O | 5.2 nM | 5.3 nM |
| COc1ccc(-n2[nH]c3c(cnc4ccccc43)c2=O)cc1 [2-(4-Methoxy-phenyl)-2,5-dihydro-pyrazolo[4,3-c]quinolin-3-one (CGS 9895)] | 6.8 nM | 38.4 nM |
